{
  "source": "patent US9212168B2",
  "about": "(priority 2011, dated 2015)",
  "data": [
    {"tested_on": "HCV genotype 1a replicon", "experiment": "HCV genotype 1a replicon assay (NS3 protease activity readout)", "assay_type": "cell-based, hepatitis C virus", "details": "HCV genotype 1a replicon", "method": "(§1) Assay 2: HCV Genotype 1a Replicon Assay\n(§2) The HCV genotype 1a replicon cell line was obtained from Apath LLC (APC89; Huh7.5 cell background). This subgenomic replicon contains the N-terminus of the HCV core protein fused to the neomycin-resistance selectable marker. The EMCV IRES lies downstream and drives expression of the non-structural proteins NS3-NS5B. Compound potencies were determined using the NS3-specific protease activity in lysates as a measurement of compound inhibition of replicon levels.\n(§3) Cells were grown at 37° C. in a 5% CO2 humidified incubator in DMEM (Invitrogen) with 10% FBS (HyClone), 1×NEAA (Invitrogen), 1× Pen-Strep (Invitrogen), and 850 μg/mL G418 (Invitrogen). On day 1 of the assay, cells were plated at 15,000 cells/well in black 96-well tissue culture plates (Costar) in 200 μL media lacking G418. Four hours later, once the cells had adhered, the media was removed and replaced with media (no G418) containing dose-responses of test compounds. Compounds were initially diluted in DMSO and then diluted another 200× in media to bring the final DMSO concentration down to 0.5%. The cells were incubated with test compounds for 48 or 72 hours. At the end of the incubation period, media and compound were removed from the plates.\n(§4) To determine the NS3-specific protease activity in lysates, the cells were lysed at room temperature in 50 μL/well of 50 mM Hepes pH 7.5, 150 mM NaCl, 15% Glycerol, 0.15% Triton X-100, 10 mM DTT for 20 minutes with shaking. 50 μL of an NS3/4a protease-specific FRET substrate (Anaspec RET S1 Cat#22991) was then added to the wells at a final concentration of 15 μM. The plates were incubated at 37° C. for 20 minutes, which corresponds to a timepoint at which the protease activity is still in the linear phase. Protease activity was determined by measuring fluorescence (Excitation: 340 nm; Emission: 509 nm).\n(§5) To analyze the data, the fluorescence was plotted vs. the compound concentration, and EC50 values were determined from a 4-parameter robust fit model using GraphPad Prism software.", "values": [
      {"smiles": "COC(=O)N[C@H](C(=O)N1C[C@@H](C)C[C@H]1c1nc(-c2ccc(-c3ccc(C(=O)Nc4ccc(N5CCN(C(=O)[C@]6(C)CCCN6C(=O)[C@@H](NC(=O)OC)C(C)C)C[C@H]5C)nc4)cc3OC(F)(F)F)cc2)c[nH]1)C(C)C", "note": "[Example 4-3]", "Genotype 1a": "D (D represents pEC50>10 (EC50<0.1 nM))"},
      {"smiles": "COC(=O)N[C@H](C(=O)N1C[C@@H](C)C[C@H]1c1nc(-c2ccc(-c3cc(Cl)c(NC(=O)c4ccc(N5CCN(C(=O)C6CC67CC7)C[C@H]5C)nc4)cc3C(F)(F)F)cc2)c[nH]1)C(C)C", "note": "(stereo partly drawn) [Example 1-89]", "Genotype 1a": "D (D represents pEC50>10 (EC50<0.1 nM))"},
      {"smiles": "COC(=O)NC(C(=O)N1C[C@@H](C)C[C@H]1c1nc(-c2ccc(-c3c(F)cc(NC(=O)c4ccc(N5CCN(C(=O)C(C)(C)C)C[C@H]5C)nc4)cc3F)cc2)c[nH]1)C1CCCCC1", "note": "(stereo partly drawn) [Example 21-1]", "Genotype 1a": "A (A represents a pEC50 value between 6 and 8 (EC50 between 1 μM and 10 nM))"},
      {"smiles": "CNC(=O)N1CCN(c2ccc(C(=O)Nc3ccc(-c4ccc(-c5c[nH]c([C@@H]6C[C@H](O)CN6C(=O)[C@@H](NC(=O)OC)C(C)C)n5)cc4)cc3)cn2)[C@H](C)C1", "note": "[Example 26-3]", "Genotype 1a": "B (B represents pEC50 between 8 and 9 (EC50 between 1 and 10 nM))"},
      {"smiles": "COC(=O)N[C@H](C(=O)N1C[C@@H](OC)C[C@H]1c1nc(-c2ccc(-c3cc(Cl)c(NC(=O)c4ccc(N5CCN(C(=O)NC(C)(C)C)C[C@H]5C)nc4)cc3OC(F)(F)F)cc2)c[nH]1)C1CCOCC1", "note": "[Example 28-12]", "Genotype 1a": "D (D represents pEC50>10 (EC50<0.1 nM))"},
      {"smiles": "COC(=O)N[C@H](C(=O)N1C[C@@H](C)C[C@H]1c1nc(-c2ccc(-c3cc(Cl)c(NC(=O)c4ccc(N5CCN(C(C)=O)C[C@H]5C)nc4)cc3OC(F)(F)F)cc2)c[nH]1)C(C)C", "note": "[Example 1-66]", "Genotype 1a": "C (C represents pEC50 between and 9 and about 10, (EC50 between 1 nM and 0.1 nM))"},
      {"smiles": "COC(=O)N[C@H](C(=O)N1C[C@@H](C)C[C@H]1c1nc(-c2ccc(-c3cc(F)c(C(=O)Nc4ccc(N5CCN(C(=O)[C@H]6CC6(C)C)C[C@H]5C)nc4)cc3OC(F)(F)F)cc2)c(Cl)[nH]1)C(C)C", "note": "[Example 4-44]", "Genotype 1a": "D (D represents pEC50>10 (EC50<0.1 nM))"},
      {"smiles": "COC(=O)NC(C(=O)N1CC(C)CC1c1nc(-c2ccc(-c3cc(Cl)c(NC(=O)c4ccc(N5CCN(C(=O)C6CC6(F)Cl)CC5C)nc4)cc3OC(F)(F)F)cc2)c[nH]1)C(C)C", "note": "(mixture of isomers) [Example 1-59]", "Genotype 1a": "D (D represents pEC50>10 (EC50<0.1 nM))"},
      {"smiles": "CCCCC(=O)N1CCN(c2ccc(C(=O)Nc3cc(OC(F)(F)F)c(-c4ccc(-c5c[nH]c([C@@H]6C[C@H](C)CN6C(=O)[C@@H](NC(=O)OC)C(C)C)n5)cc4)cc3Cl)cn2)[C@H](C)C1", "note": "[Example 1-71]", "Genotype 1a": "C (C represents pEC50 between and 9 and about 10, (EC50 between 1 nM and 0.1 nM))"},
      {"smiles": "COC(=O)N[C@H](C(=O)N1C[C@@H](O)C[C@H]1c1nc(-c2ccc(-c3cc(Cl)c(NC(=O)c4ccc(N5CCN(C(=O)C(C)(C)CO)C[C@H]5C)nc4)cc3OC(F)(F)F)cc2)c[nH]1)C(C)C", "note": "[Example 26-9]", "Genotype 1a": "C (C represents pEC50 between and 9 and about 10, (EC50 between 1 nM and 0.1 nM))"},
      {"smiles": "CNC(=O)N1CCC[C@@]1(C)C(=O)N1C[C@@H](C)N(c2ccc(C(=O)Nc3cc(OC(F)(F)F)c(-c4ccc(-c5c[nH]c([C@@H]6C[C@H](C)CN6C(=O)[C@@H](NC(=O)OC)C(C)C)n5)cc4)cc3Cl)cn2)C[C@@H]1C", "note": "[Example 1-23]", "Genotype 1a": "D (D represents pEC50>10 (EC50<0.1 nM))"},
      {"smiles": "COC(=O)N[C@H](C(=O)N1C[C@@H](C)C[C@H]1c1nc(-c2ccc(-c3ccc(C(=O)Nc4ccc(N5C[C@H](C)N(C(=O)C6CC6(Cl)Cl)C[C@H]5C)nc4)cc3OC(F)(F)F)cc2)c[nH]1)C(C)C", "note": "(stereo partly drawn) [Example 4-23]", "Genotype 1a": "C (C represents pEC50 between and 9 and about 10, (EC50 between 1 nM and 0.1 nM))"},
      {"smiles": "COC(=O)N[C@H](C(=O)N1C[C@@H](C)C[C@H]1c1nc(-c2ccc(-c3cc(Cl)c(NC(=O)c4ccc(N5CCN(C(=O)C6(C)CC6)C[C@H]5C)nc4)cc3OC(F)(F)F)cc2)c[nH]1)C(C)C", "note": "[Example 1-80]", "Genotype 1a": "C (C represents pEC50 between and 9 and about 10, (EC50 between 1 nM and 0.1 nM))"},
      {"smiles": "COC(=O)N[C@H](C(=O)N1C[C@@H](C)C[C@H]1c1nc(-c2ccc(-c3cc(F)c(C(=O)Nc4ccc(N5CCN(C(=O)[C@H]6CC6(C)C)C[C@H]5C)nc4)cc3OC(F)(F)F)cc2)c[nH]1)C(C)C", "note": "[Example 4-43]", "Genotype 1a": "C (C represents pEC50 between and 9 and about 10, (EC50 between 1 nM and 0.1 nM))"},
      {"smiles": "COC(=O)N[C@H](C(=O)N1CC(C)(C)C[C@H]1c1nc(-c2ccc(-c3cc(F)c(NC(=O)c4ccc(N5CCN(C(=O)[C@]6(C)CCCN6C(=O)[C@@H](NC(=O)OC)C(C)C)C[C@H]5C)nc4)cc3C(F)(F)F)cc2)c[nH]1)C(C)C", "note": "[Example 3-2]", "Genotype 1a": "D (D represents pEC50>10 (EC50<0.1 nM))"},
      {"smiles": "CNC(=O)N1CCC[C@@H]1C(=O)N1CCN(c2ccc(C(=O)Nc3cc(OC(F)(F)F)c(-c4ccc(-c5c[nH]c([C@@H]6C[C@H](C)CN6C(=O)[C@@H](NC(=O)OC)C(C)C)n5)cc4)cc3Cl)cn2)[C@H](C)C1", "note": "[Example 1-38]", "Genotype 1a": "D (D represents pEC50>10 (EC50<0.1 nM))"},
      {"smiles": "COC(=O)NC(C(=O)N1CC(OC)CC1c1nc(-c2ccc(-c3ccc(NC(=O)c4ccc(N5CCN(C(=O)C(C)(C)CO)CC5C)nc4)cc3OC(F)(F)F)cc2)c[nH]1)C(C)(C)O", "note": "(stereo not drawn) [Example 16-17]", "Genotype 1a": "D (D represents pEC50>10 (EC50<0.1 nM))"}
    ]},
    {"tested_on": "HCV genotype 1a replicon", "experiment": "HCV genotype 1a replicon assay (NS3 protease activity readout)", "assay_type": "cell-based, hepatitis C virus", "details": "Hepatitis C virus, read-out: Genotype 1a, HCV genotype 1a replicon", "method": "as §1, §2, §3, §4, §5", "units": {"EC50": "nM"}, "values": [
      {"smiles": "COC(=O)N[C@H](C(=O)N1C[C@@H](C)C[C@H]1c1nc(-c2ccc(-c3cc(Cl)c(NC(=O)c4ccc(N5CCN(C(=O)C6CCC6(C)C)C[C@H]5C)nc4)cc3OC(F)(F)F)cc2)c[nH]1)C(C)C", "note": "(stereo partly drawn) [Example 12-21]", "EC50": "< 0.1"},
      {"smiles": "COC(=O)N[C@H](C(=O)N1C[C@@H](S(C)(=O)=O)C[C@H]1c1nc(-c2ccc(-c3ccc(C(=O)Nc4ccc(N5CCN(C(=O)C(C)(C)C)C[C@H]5C)nc4)cc3OC(F)(F)F)cc2)c[nH]1)C(C)C", "note": "[Example 6-22]", "EC50": "1 to 10"},
      {"smiles": "COC(=O)N[C@H](C(=O)N1C[C@@H](C)C[C@H]1c1nc(-c2ccc(-c3cc(Cl)c(NC(=O)c4ccc(N5CCN(C(=O)NN6CCS(=O)(=O)CC6)C[C@H]5C)nc4)cc3OC(F)(F)F)cc2)c[nH]1)C(C)C", "note": "[Example 12-19]", "EC50": "< 0.1"},
      {"smiles": "COCCO[C@H](C)[C@H](NC(=O)OC)C(=O)N1C[C@@H](C)C[C@H]1c1nc(-c2ccc(-c3cc(Cl)c(NC(=O)c4ccc(N5CCN(C(=O)C(C)(C)C)C[C@H]5C)nc4)cc3OC(F)(F)F)cc2)c[nH]1", "note": "[Example 13-9]", "EC50": "< 0.1"},
      {"smiles": "[2H]C([2H])([2H])C1(C([2H])([2H])[2H])CC1C(=O)N1CCN(c2ccc(NC(=O)c3ccc(-c4ccc(-c5nc([C@@H]6C[C@H](N(C)C)CN6C(=O)[C@@H](NC(=O)OC)C(C)C)[nH]c5Cl)cc4)c(OC(F)(F)F)c3)cn2)[C@H](C)C1", "note": "(stereo partly drawn) [Example 6-17]", "EC50": "< 0.1"},
      {"smiles": "CCN(C)C(C)C(=O)N1CCN(c2ccc(C(=O)Nc3cc(OC(F)(F)F)c(-c4ccc(-c5c[nH]c([C@@H]6C[C@H](C)CN6C(=O)[C@@H](NC(=O)OC)C(C)C)n5)cc4)cc3Cl)cn2)[C@H](C)C1", "note": "(stereo partly drawn) [Example 12-22]", "EC50": "0.1 to 1"},
      {"smiles": "COC(=O)N[C@H](C(=O)N1C[C@@H](C)C[C@H]1c1nc(-c2ccc(-c3cc(Cl)c(NC(=O)c4ccc(N5CCN(C(=O)C(C)(C)C(=O)O)C[C@H]5C)nc4)cc3OC(F)(F)F)cc2)c[nH]1)C(C)C", "note": "[Example 12-58]", "EC50": "0.1 to 1"},
      {"smiles": "CNC(=O)N1C[C@@H](C)N(c2ccc(C(=O)Nc3cc(OC(F)(F)F)c(-c4ccc(-c5c[nH]c([C@@H]6C[C@H](C)CN6C(=O)C(c6ccccc6)N(C)C)n5)cc4)cc3Cl)cn2)C[C@@H]1C", "note": "(stereo partly drawn) [Example 7-11]", "EC50": "< 0.1"},
      {"smiles": "COCC(=O)N1CCC[C@@]1(C)C(=O)N1CCN(c2ccc(NC(=O)c3ccc(-c4ccc(-c5c[nH]c([C@@H]6CC(C)(C)CN6C(=O)[C@@H](NC(=O)OC)C(C)C)n5)cc4)c(OC(F)(F)F)c3)cn2)[C@H](C)C1", "note": "[Example 6-7]", "EC50": "< 0.1"},
      {"smiles": "COC(=O)N[C@H](C(=O)N1C[C@@H](C)C[C@H]1c1nc(-c2ccc(-c3cc(Cl)c(NC(=O)c4ccc(N5CCN(C(=O)NN6CCOCC6)C[C@H]5C)nc4)cc3OC(F)(F)F)cc2)c[nH]1)C(C)C", "note": "[Example 12-18]", "EC50": "< 0.1"},
      {"smiles": "COC(=O)N[C@H](C(=O)N1C[C@@H](C)C[C@H]1c1nc(-c2ccc(-c3cc(F)c(NC(=O)c4ccc(N5CCN(C(=O)C(C)(C)CO)C[C@H]5C)nc4)cc3OC(F)(F)F)cc2)c[nH]1)C(C)(C)O", "note": "[Example 13-23]", "EC50": "< 0.1"},
      {"smiles": "CNC(=O)N1C[C@@H](C)N(c2ccc(C(=O)Nc3cc(OC(F)(F)F)c(-c4ccc(-c5c[nH]c([C@@H]6C[C@H](C)CN6C(=O)C(C)N(C)C(=O)OC)n5)cc4)cc3Cl)cn2)C[C@@H]1C", "note": "(stereo partly drawn) [Example 7-14]", "EC50": "< 0.1"},
      {"smiles": "COC(=O)N[C@H](C(=O)N1C[C@H](OC)C[C@H]1c1nc(-c2ccc(-c3cc(Cl)c(NC(=O)c4ccc(N5CCN(C(=O)C(C)(C)C)C[C@H]5C)nc4)cc3OC(F)(F)F)cc2)c[nH]1)C(C)C", "note": "[Example 5-19]", "EC50": "< 0.1"}
    ]}
  ]
}
